The term Ki denotes a measure of affinity in units of concentration, obtained from inhibition or displacement. Read a high Ki as weaker binding.

In the first assay the target is Prothrombin (Homo sapiens, UniProt P00734). In words: Binding affinity was determined against human thrombin.
Consider `CCOC(=O)N1CCN(C(=O)[C@H](Cc2ccc(C(N)NN)cc2)NS(=O)(=O)c2ccc3ccccc3c2)CC1` (stereo partly specified), for which the Ki was 3300 nM. Same read-out and setting: for `CN(C(=O)[C@H](Cc1ccc(C(N)NN)cc1)NS(=O)(=O)c1cccc2c1CCCC2)C1CCCC1` (stereo partly specified) the value was 3.8 nM.

On to `CN(C(=O)[C@H](Cc1ccc(C(N)NN)cc1)NS(=O)(=O)c1ccc2c(c1)CCCCC2)C1CCCC1` (stereo partly specified), for which the Ki is 0.045 nM. On the same count and under the same terms, the result for `CN(C(=O)[C@H](Cc1ccc(C(N)NN)cc1)NS(=O)(=O)c1ccc2c(c1)CCCC2)C1CCCC1` (stereo partly specified) reads 0.12 nM. The same measure, in the same setting: for `CS(=O)(=O)N1CCN(C(=O)[C@H](Cc2ccc(C(N)NN)cc2)NS(=O)(=O)c2ccc3ccccc3c2)CC1` (stereo partly specified) the value was 11 nM. On the same count and under the same terms, the result for `CN(C(=O)[C@H](Cc1ccc(C(N)NN)cc1)NS(=O)(=O)c1ccc2cc3ccccc3cc2c1)C1CCCC1` (stereo partly specified) reads 0.1 nM; that for `CN(C(=O)[C@H](Cc1ccc(C(N)NN)cc1)NS(=O)(=O)c1cccc2ccccc12)C1CCCC1` (stereo partly specified), 8 nM. As for `CN(C(=O)[C@H](Cc1ccc(C(N)NN)cc1)NS(=O)(=O)Cc1ccccc1)C1CCCC1` (stereo partly specified), the Ki came to 18.4 nM. Same read-out and setting: the result for `CN(C(=O)[C@H](Cc1ccc(C(N)NN)cc1)NS(=O)(=O)c1ccc2ccccc2c1)C1CCCC1` (stereo partly specified) reads 0.38 nM; that for `CN(C(=O)[C@H](Cc1ccc(CCN)cc1)NS(=O)(=O)c1ccc2ccccc2c1)C1CCCC1`, 3.3 nM; that for `CN(C)c1cccc2c(S(=O)(=O)N[C@@H](Cc3ccc(C(N)NN)cc3)C(=O)N(C)C3CCCC3)cccc12` (stereo partly specified), 0.3 nM.

The next assay has as its target Prothrombin (Bos taurus, UniProt P00735). In words: Binding affinity was determined against bovine thrombin.
Consider `NNC(N)c1ccc(C[C@H](NS(=O)(=O)c2ccc3ccccc3c2)C(=O)N2CCCCCC2)cc1` (stereo partly specified), for which the Ki was determined as 1.5 nM. For `CNC(N)c1ccc(C[C@@H](NC(=O)CNS(=O)(=O)c2ccc3ccccc3c2)C(=O)N2CCCCC2)cc1` (stereo partly specified), the Ki was determined as 5370 nM. Still for that read-out and setting: the result for `CCCCN(C)C(=O)[C@H](Cc1ccc(C(N)NN)cc1)NS(=O)(=O)c1ccc2ccccc2c1` (stereo partly specified) reads 41 nM.

`CN(C(=O)[C@H](Cc1ccc(C(N)NN)cc1)NS(=O)(=O)c1ccc2ccccc2c1)C1CCCCC1` (stereo partly specified) showed a Ki of 152 nM. On to `NC(N)c1ccc(C[C@@H](NC(=O)CNS(=O)(=O)c2ccc3ccccc3c2)C(=O)N2CCCCC2)cc1`, for which the Ki amounted to 6.5 nM. Still for that read-out and setting: the result for `CN(C(=O)[C@H](Cc1ccc(C(N)NN)cc1)NS(=O)(=O)c1ccc2ccccc2c1)C1CCCC1` (stereo partly specified) reads 1.1 nM; that for `CN(C(=O)[C@H](Cc1ccc(C(N)NN)cc1)NS(=O)(=O)c1ccc2ccccc2c1)C1CC1` (stereo partly specified), 247 nM; that for `NNC(N)c1ccc(C[C@@H](NC(=O)CNS(=O)(=O)c2ccc3ccccc3c2)C(=O)N2CCCCC2)cc1` (stereo partly specified), 4320 nM. The same measure, in the same setting: the result for `NC(N)c1ccc(C[C@H](NS(=O)(=O)c2ccc3ccccc3c2)C(=O)N2CCCCCC2)cc1` reads 52.4 nM; that for `CNC(N)c1ccc(C[C@H](NS(=O)(=O)c2ccc3ccccc3c2)C(=O)N2CCCCCC2)cc1` (stereo partly specified), 45.5 nM.

The values are drawn from ChEMBL document CHEMBL1134382, “Estimation of binding affinities for selective thrombin inhibitors via Monte Carlo simulations” (J Med Chem, 2001).
